Assay results: the NIST ThermoML archive (doi:10.1021/je300382a)

Assay: xn = mol fraction of the nth substance listed
Settings: Ring tensiometer

NCc1ccccc1 [benzylamine] + O
surface tension liquid-gas [mN/m]
Settings | 283.15 K | 293.15 K | 303.15 K | 313.15 K | 323.15 K
x1 = 0.0001 | 69.5 | 67.7 | 65.5 | 63.2 | 61.6
x1 = 0.0005 | 60.4 | 58.1 | 56.1 | 54.3 | 52.3
x1 = 0.001 | 54.9 | 53.1 | 50.6 | 48.8 | 47.2
x1 = 0.003 | 48.6 | 46.1 | 44.3 | 42.6 | 40.1
x1 = 0.006 | 42.1 | 40.7 | 39.2 | 37.7 | 36.4
x1 = 0.01 | 41.4 | 40 | 38.6 | 37.5 | 36
x1 = 0.03 | 39.5 | 38.4 | 37.5 | 36.3 | 35.6
x1 = 0.05 | 39.3 | 38.3 | 37.5 | 36.3 | 35.5
x1 = 0.07 | 38.9 | 38.1 | 37.3 | 36.2 | 35.5
x1 = 0.1 | 38.7 | 38 | 37.2 | 36.2 | 35.4
x1 = 0.2 | 38.6 | 37.8 | 37 | 36.1 | 35.4
x1 = 0.3 | 38.4 | 37.5 | 36.9 | 35.9 | 35.2
x1 = 0.4 | 38.4 | 37.5 | 36.9 | 35.9 | 35.2
x1 = 0.5 | 38.3 | 37.6 | 36.8 | 35.9 | 35.2
x1 = 0.6 | 38.2 | 37.4 | 36.6 | 35.7 | 35.2
x1 = 0.7 | 38.1 | 37.3 | 36.5 | 35.8 | 35.1
x1 = 0.8 | 38.1 | 37.3 | 36.5 | 35.8 | 35.1
x1 = 0.9 | 38 | 37.2 | 36.4 | 35.7 | 35.1
x1 = 1 | 37.9 | 37.1 | 36.3 | 35.6 | 35
